Test results: US20100173923A1, “4 (PYRROLOPYRIDINYL)PYRIMIDINYL-2-AMINE DERIVATIVES” (priority 2006, published 2010)

System: tumour cells (for example commercially available colon carcinoma cell lines)
Experiment: Inhibition of the proliferation/vitality of tumour cells in vitro (Crystal Violet staining)
Type: cell-based
Conditions: 48 hours incubation with test substance, serum-containing medium, Crystal Violet absorbance, value given as range
Protocol: In the present experiment description, the inhibition of tumour cell proliferation/tumour cell vitality by active ingredients is described.
The cells are sown in a suitable cell density in microtitre plates (96-well format). On the next day, the test substances are added in the form of a concentration series. After two further days of cultivation in serum-containing medium, the cell density is determined photometrically by staining the cells with Crystal Violet.
For example commercially available colon carcinoma cell lines.
The cells are cultivated in medium. At intervals of 3-4 days, the cells are detached from the culture dishes with the aid of trypsin solution and sown in suitable dilution in fresh medium. The cells are cultivated at 37° Celsius and 10% CO2.
• A cell culture bottle is washed with 1×PBS • Addition of 3 ml of 1× trypsin solution. Incubation at 37° C. for 5 min in an incubator. • Termination by addition of 7 ml of medium • Centrifugation of the cells (for example for 5 minutes at 150×g (1200 rpm)) • Remove medium by tilting and resuspend cells in fresh medium • Cell counting, for example using Trypan Blue solution (1:2 dilution) in counting chamber • Dilute cell suspension to 25,000 cells/ml and plate out 100 μl/well (2500 cells/well) • Incubation of the microtitre plate at 37° C. in 10% CO2 overnight
• The test substances are dissolved, for example, in DMSO and subsequently employed in corresponding concentration (if desired in a dilution series) in the cell culture medium. The dilution steps can be adapted depending on the efficiency of the active ingredients and the desired spread of the concentrations. Cell culture medium is added to the test substances in corresponding concentrations. Within the dilution series, the final concentration of DMSO in the cell culture medium can be constant (for example at 0.5%). The addition of the test substances to the cells can take place one day after sowing of the cells. To this end, the medium is removed from the cells, and the test substance dilutions are added to the cells (in the desired concentrations in the cell culture medium). […]
• The medium is removed from the cells, and the cells are washed with PBS. […] An absorption measurement is carried out at corresponding wavelength, for example 550 nm, in a microtitre plate reader (for example TECAN Genios No F129004). […]
The absorbance value of the medium control (no cells and test substances used) is subtracted from all other absorbance values. The controls (cells without test substance) with the solvent DMSO are set equal to 100 percent, and all other absorbance values are set in relation thereto (for example in % of control):
IC50 values (50% inhibition) are determined with the aid of statistics programs, such as, for example, RS1.

| IC50 [µM] | Compound |
| --- | --- |
| 0.05 to 0.5 | c1ccc(Nc2nccc(-c3c[nH]c4ncccc34)n2)cc1 [Compound A1, 3-(2-phenylaminopyrimidin-4-yl)-1H-pyrrolo[2,3-b]pyridine] |
| 5 to 50 | CNc1nccc(-c2cn(CCOC)c3ncccc23)n1 [Compound A4] |
| 5 to 50 | COCCn1cc(-c2ccnc(Nc3ccccc3)n2)c2cccnc21 [Compound A2, 1-(2-methoxyethyl)-3-(2-phenylaminopyrimidin-4-yl)-1H-pyrrolo[2,3-b]pyridine] |
| 0.5 to 5 | CNc1nccc(-c2c[nH]c3ncccc23)n1 [Compound A3] |
